Experimental data: patent US12161686B2, “Natural preservatives and antimicrobial agents, including compositions thereof” (Unigen, Inc., priority 2015, dated 2024)

Experiments:
Format in all cases: cell-based
Streptococcus pyogenes = assay: Minimum Inhibitory Concentration Method (MIC/MBC)
[1] = system: Pseudomonas aeruginosa (ATCC 9027); assay: Minimum Inhibitory Concentration Method (MIC/MBC), broth dilution
Procedure: (§1) Minimum Inhibitory Concentration against bacterial S. aureus, P. aeruginosa, E. coli, and fungi A. brasiliensis and C. albicans were determined for Albizia amara seeds extract and the active marker compound bundmunchiamine C. The Minimum Inhibitory Concentration Method (MIC) is carried out following the general microbiological protocol to measure the lowest level of an antimicrobial agent that can inhibit microbial proliferation in liquid. Test microorganisms are prepared in liquid culture medium for bacteria or on agar for fungi. Suspensions of test microorganisms are standardized by dilution in appropriate broth solution, usually Mueller-Hinton broth. The test substance is prepared by conducting several serial 1:1 dilutions in a 96-well microtiter plate or in small test tubes, through Mueller-Hinton broth or other appropriate medium. All wells or tubes containing diluted test substances are inoculated with test microorganisms, individually, resulting in one additional and final dilution of the product in all test vessels. The microtiter plate or test tubes are incubated for 18-24 hours. After the incubation period, observations are made to determine the minimum concentration (MIC) which is the lowest concentration of test substance in a well where no turbidity (indicative of test microorganism growth) is observed and minimum bactericidal concentration (MBC).
(§2) The Albizia amara seeds extract RN368-31-MIX and budmunchiamine C were tested against five microorganisms required for category 2 including Staphylococcus aureus (ATCC 6538), Escherichia coli (ATCC 8739), Pseudomonas aeruginosa (ATCC 9027), Candida albicans (ATCC 10231), Aspergillus brasiliensis (ATCC 16404).

[2] = system: Escherichia coli (ATCC 8739); assay: as above
Procedure: as §1, §2

[3] = system: Staphylococcus aureus (ATCC 6538); assay: as above
Procedure: as §1, §2

[4] = system: Candida albicans (ATCC 10231); assay: Minimum Inhibitory Concentration Method (MIC/MBC), broth dilution; FIC index
Procedure: (§3) Minimum Inhibitory Concentration against bacterial S. aureus, P. aeruginosa, E. coli, and fungi A. brasiliensis and C. albicans were determined for Albizia amara seeds extract and the active marker compound bundmunchiamine C. The Minimum Inhibitory Concentration Method (MIC) is carried out following the general microbiological protocol to measure the lowest level of an antimicrobial agent that can inhibit microbial proliferation in liquid. Test microorganisms are prepared in liquid culture medium for bacteria or on agar for fungi. Suspensions of test microorganisms are standardized by dilution in appropriate broth solution, usually Mueller-Hinton broth. […]
(§4) In vitro antifungal combinations are commonly evaluated on the basis of the fractional inhibitory concentration (FIC) index, which represents the sum of the FIC of each substance tested. […]
(§5) The fractional inhibitory concentration (FIC) was calculated with the equation: FIC of drug A (FIC A)=MIC of drug A in combination/MIC of drug A alone, and FIC of drug B (FIC B)=MIC of drug B in combination/MIC of drug B alone]. The FIC Index (FICI), calculated as the sum of each FIC (YFIC). The calculated index of 1A:1M and 1A:3M against C. albicans were 0.187 and 0.292. […]

[5] = system: Aspergillus brasiliensis (ATCC 16404); assay: as above
Procedure: as §3, §4, §5

Substance: budmunchiamine C
- MIC Streptococcus pyogenes (Streptococcus pyogenes): < 0.97 µg/mL
- MBC Pseudomonas aeruginosa [1]: 62.5 µg/mL
- MIC Pseudomonas aeruginosa [1]: 62.5 µg/mL
- MBC Escherichia coli [2]: 31.25 µg/mL
- MIC Escherichia coli ([2]; neutral condition): 31.25 µg/mL
- MBC Staphylococcus aureus [3]: 31.25 µg/mL
- MIC Staphylococcus aureus [3]: 31.25 µg/mL
- MBC Candida albicans [4]: 125 µg/mL
- MIC Aspergillus brasiliensis [5]: 125 µg/mL
